Source: PMC5349906, “NT1721, a novel epidithiodiketopiperazine, exhibits potent in vitro and in vivo efficacy against acute myeloid leukemia” (Oncotarget, 2016)
pIC50: −log10 of the molar value.

Target: T1, SUV39H1 (Homo sapiens, UniProt O43463)
T1 construct: recombinant SUV39H1
T1 sequence (O43463 1-412): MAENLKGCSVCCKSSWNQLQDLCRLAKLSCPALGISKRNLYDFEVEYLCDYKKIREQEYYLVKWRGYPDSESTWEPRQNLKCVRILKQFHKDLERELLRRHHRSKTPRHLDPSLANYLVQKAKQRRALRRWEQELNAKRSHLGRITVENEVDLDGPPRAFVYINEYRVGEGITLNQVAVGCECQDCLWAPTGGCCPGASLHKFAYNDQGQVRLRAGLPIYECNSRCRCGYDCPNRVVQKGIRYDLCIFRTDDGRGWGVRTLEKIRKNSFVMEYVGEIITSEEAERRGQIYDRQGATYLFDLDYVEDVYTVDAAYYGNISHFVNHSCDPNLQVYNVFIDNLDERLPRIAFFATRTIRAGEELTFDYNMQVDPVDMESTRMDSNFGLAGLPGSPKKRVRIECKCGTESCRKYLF
Assay: cell-free histone methyltransferase activity assay with recombinant enzyme (data not shown)
Assay type: biochemical

SMILES: CN1C(=O)[C@@]23C[C@](C)(C#N)[C@H](c4ccc5c(c4)OCO5)N2C(=O)[C@]1(C)SS3 (racemic) [NT1721]
- pIC50: 5.89
